In patent US20100029615A1, “BENZIMIDAZOLE DERIVATIVES” (priority 2006, published 2010):
Counter-ions that a name gives are not always drawn.

Target: T1, SMO (Mus musculus, UniProt P56726)
T1 construct: endogenous in cells; host or cells: C3H10T1/2 (ATCC #CCL-226)
Assay: Smoothened (SMO)/Sonic Hedgehog (SHh) Transient Transcriptional Activation Assay (Gli-luciferase reporter in C3H10T1/2 cells)
Type: cell-based, murine
Conditions: 2 uM test compound, SHh 250 ng/ml, 20 hrs
Description: As noted above, the compounds of the invention are useful as inhibitors of SMO. Methods for determining the in vitro activity of these compounds are described below: Smoothened (SMO)/Sonic Hedgehog (SHh) Transient Transcriptional Activation Assay
On Day 1,2×10^6 C3H10T1/2 cells (ATCC #CCL-226) were split and seeded in 12 mls of growth medium Basal Medium Eagle (BME, Invitrogen #21010-046) supplemented with 2 mM L-glutamine (Invitrogen #25030-081), 0.1 units/ml penicillin and 0.1 ug/ml streptomycin (Invitrogen #15140-122), and 10% Fetal Bovine Serum (FBS, Invitrogen #16140-071) in a T-75 flask (Costar #3376). They were allowed to attach for 4 hours at 37° C., 5% CO2. The cells were then transfected using Fugene 6 (Roch #11 814 443 001) in the following reaction: 48 ul Fugene 6 and 745 ul Opti-MEM (Invitrogen #31985-070) were mixed and allowed to sit at room temperature for 5 minutes. 8 ug of pGL4.14/mGli(CS) DNA (10× murine Gli response elements and minimal CS promoter) and 0.5 ug of pEGFP DNA (Clontech) were added, gently mixed and incubated at room temperature for 20 minutes. This entire transfection mix was then added to the T-75 flask containing the cells. The cells were incubated at 37 °C, 5% C02 for 18-24 hrs.
On Day 2, the transfected cells were trypsinized and seeded into white 96 well plates (Costar #3917) in 100ul/well of growth medium at a concentration of 20,000 cells/well. The cells were allowed to recover for 4 hrs before adding serum starvation medium Dulbecco's Modified Eagle Medium (DMEM, Invitrogen #21063-029) supplemented with 2 mM L-glutamine, 0.1 units/ml penicillin and 0.1 ug/ml streptomycin, and 0.5% Calf Serum (CS, Invitrogen #26170-043). The growth media was aspirated off, and the cells were rinsed with 100 ul of starvation media. 95 ul of starvation media was then added to each well. The cells were incubated for 20 hrs at 37 °C, 5% C02.
On Day 3, cells were dosed with test compounds at a final concentration ranging from 2 uM to 2 nM. Immediately after dosing cells with compounds, recombinant human sonic hedgehog (SHh, R&D Systems #1845-SH) was add to a final concentration of 250 ng/ml. A 25 ug vial of SHh was reconstituted with 250 ul PBS/0.1% BSA to give a 100 ng/ul working stock. This working stock was then diluted 1:20 in starvation media. The transfected cells were incubated with compounds and SHh for 20 hrs at 37 °C, 5% C02.
Luciferase assays were conducted on Day 4 using Dual-Glo Luciferase assay system (Promega #E2940) according to Promega's protocol. Briefly, Dual-Glo luciferase reagent was made up and 100 uls were added to each well of the 96 well plate containing media. Plates were shaken at room temperature for 10 minutes, and then read on TopCount (Perkin-Elmer). The luminescence was recorded.

T1 sequence (P56726 33-793): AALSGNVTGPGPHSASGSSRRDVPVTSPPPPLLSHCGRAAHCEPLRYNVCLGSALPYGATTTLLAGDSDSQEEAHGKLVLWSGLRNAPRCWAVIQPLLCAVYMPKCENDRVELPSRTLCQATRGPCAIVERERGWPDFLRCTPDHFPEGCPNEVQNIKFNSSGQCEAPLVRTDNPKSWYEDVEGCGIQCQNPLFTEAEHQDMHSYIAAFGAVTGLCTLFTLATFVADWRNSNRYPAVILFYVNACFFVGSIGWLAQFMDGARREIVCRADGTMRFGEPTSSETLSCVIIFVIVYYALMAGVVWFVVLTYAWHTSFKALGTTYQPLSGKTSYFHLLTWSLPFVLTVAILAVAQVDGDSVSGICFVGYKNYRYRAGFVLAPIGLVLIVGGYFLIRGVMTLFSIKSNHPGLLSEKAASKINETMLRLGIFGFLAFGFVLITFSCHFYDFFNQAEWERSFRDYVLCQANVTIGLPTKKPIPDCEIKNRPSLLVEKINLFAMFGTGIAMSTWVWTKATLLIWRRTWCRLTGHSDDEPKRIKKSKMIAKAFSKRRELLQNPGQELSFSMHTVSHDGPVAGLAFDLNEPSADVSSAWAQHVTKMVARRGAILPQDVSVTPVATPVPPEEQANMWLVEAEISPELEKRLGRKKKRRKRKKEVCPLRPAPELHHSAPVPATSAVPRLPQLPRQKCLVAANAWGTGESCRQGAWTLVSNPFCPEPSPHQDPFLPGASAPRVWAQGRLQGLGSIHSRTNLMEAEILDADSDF

Row | SMO % inhibition at 2 uM [%] | Compound
1 | 104 | N-(3-(6-(Hydroxymethyl)-1-methyl-1H-benzo[d]imidazol-2-yl)cyclohexyl)-2,3-dihydrobenzo[b][1,4]dioxine-6-carboxamide and N-(3-(5-(Hydroxymethyl)-1-methyl-1H-benzo[d]imidazol-2-yl)cyclohexyl)-2,3-dihydrobenzo[b][1,4]dioxine-6-carboxamide [Example 30]

Same assay, conditions: 2 μM test compound, SHh 250 ng/ml, 20 hrs, HCl, 2 µM

Row | SMO CELL % INHIBITION @ 2 μM [%] | Compound
2 | 102.05 | O=C(N[C@@H]1CCC[C@H](c2nc3ccccc3[nH]2)C1)c1ccc2c(c1)CCCO2 [Example 266, N-[(1R,3S)-3-(1H-benzimidazol-2-yl)cyclohexyl] chromane-6-carboxamide HCl]

Same assay, conditions: C3H 10T1/2, 2 uM test compound, SHh 250 ng/ml, 20 hrs, read-out: SMO % inhibition at 2 uM

Row | inhibition at 2 µM [%] | Compound
3 | 108 | O=C(Nc1ccc(C(F)(F)F)cc1)N[C@@H]1CCC[C@H](c2nc3ccccc3[nH]2)C1 [Example 47, 1-((1R,3S)-3-(1H-Benzo[d]imidazol-2-yl)cyclohexyl]-3-(4-(trifluoromethyl)phenyl)urea]
4 | 102 | CN(C)c1ccc2nc(C3CCCC(NC(=O)c4ccc5c(c4)OCCO5)C3)[nH]c2c1 (centres unmarked) [Example 39]

Same assay, conditions: C3H 10T1/2, 2 μM test compound, SHh 250 ng/ml, 20 hrs, read-out: SMO CELL % INHIBITION @ 2 μM

Row | inhibition at 2 µM [%] | Compound
5 | 109 | CN1C(=O)COc2ccc(C(=O)N[C@H]3CCC[C@H](c4nc5ccccc5[nH]4)C3)cc21 [Example 249, N-(3-(1H-benzo[d]imidaz-ol-2-yl)cyclohexyl)-4-methyl-3-oxo-3,4-dihydro-2H-benzo[d][1,4]ox-azine-6-carboxamide HCl]
6 | 89 | O=C(NC12CCCC(c3nc4cc(C(F)(F)F)ccc4[nH]3)(C1)C2)c1ccc(C(=O)c2ccccc2)cc1 [Example 275, 4-benzoyl-N-{5-[5-(trifluoromethyl)-1H-benzimidazol-2-yl]bicyclo[3.1.1]hept-1-yl}benzamide]
7 | 111 | CN1C(=O)CCc2cc(C(=O)N[C@@H]3CCC[C@H](c4nc5cc(C(F)(F)F)ccc5[nH]4)C3)ccc21 [Example 304, 1-methyl-2-oxo-N-[(1R,3S)-3-[5-(trifluoromethyl)-1H-benzimidazol-2-yl]cyclohexyl}-1,2,3,4-tetrahydroquin-oline-6-carboxamide (+)-tartrate]
8 | 48 | CCc1ccc2nc(C(=O)N[C@@H]3CCC[C@H](c4nc5ccccc5[nH]4)C3)cn2c1 [Example 221, N-[(1R,3S)-3-(1H-benzimidazol-2-yl)cyclohexyl]-6-ethylimidazo[1,2-a]pyridine-2-carboxamide triflouroacetate]
9 | 106 | O=C1CCc2cc(C(=O)N[C@@H]3CCC[C@H](c4nc5cc(Cl)ccc5[nH]4)C3)ccc2N1 [Example 300, N-[(1R,3S)-3-(5-chloro-1H-benzimidazol-2-yl)cyclohexyl]-2-oxo-1,2,3,4-tetrahydroquino-line-6-carboxamide (+)-tartrate]

Continued, compound first:

Row | Compound | inhibition at 2 µM [%]
10 | O=C(NC1CCCC(c2nc3ccccc3[nH]2)C1)C1CCCO1 (centres unmarked) [Example 121, N-[3-(1H-benzimidazol-2-yl)cyclohexyl] tetrahydrofuran-2-carboxamide triflouroacetate] | 94
11 | COc1cc(OC)cc(C(=O)NC2CCCC(c3nc4ccccc4[nH]3)C2)c1 (centres unmarked) [Example 52, N-[3-(1H-benzimidazol-2-yl)cyclohexyl]-3,5-dimethoxybenz-amide HCl] | 105
12 | N#Cc1ccc2nc([C@H]3CCC[C@@H](NC(=O)c4ccc5c(c4)OCCO5)C3)[nH]c2c1 [Example 172, N-[(1R,3S)-3-(6-cyano-1H-benzimidazol-2-yl)cyclohexyl]-2,3-dihydro-1,4-benzodioxine-6-carboxamide HCl] | 90
13 | O=C(CN1CCCCCC1=O)NC1CCCC(c2nc3ccccc3[nH]2)C1 (centres unmarked) [Example 112, N-[3-(1H-benzimidazol-2-yl)cyclohexyl]-2-(2-oxoazepan-1-yl)acetamide triflouroacetate] | 93
14 | O=C(NC1CCCC(c2nc3ccccc3[nH]2)C1)c1ccc2[nH]c(=O)[nH]c(=O)c2c1 (centres unmarked) [Example 158, N-[3-(1H-benzimidazol-2-yl)cyclohexyl]-2,4-dioxo-1,2,3,4-tetrahydroquin-azoline-6-carboxamide triflouroacetate] | 73
